Source: ChEMBL document CHEMBL1795286, “A concise synthesis and antimicrobial activities of 3-polyamino-23,24-bisnorcholanes as steroid-polyamine conjugates” (2011)

Experiments:
Staphylococcus aureus [1] = test: Antimicrobial activity against Staphylococcus aureus ATCC 25923 after 18 hrs by twofold agar dilution method; type: functional; conditions: ATCC 25923, 18 h
Escherichia coli [2] = test: Antimicrobial activity against Escherichia coli ATCC 25922 after 18 hrs by twofold agar dilution method; type: functional; conditions: ATCC 25922, 18 h
Citrobacter koseri = test: Antimicrobial activity against Citrobacter diversus 2046 after 18 hrs by twofold agar dilution method; type: functional; conditions: Citrobacter koseri, 2046, 18 h
Staphylococcus aureus [3] = test: Antimicrobial activity against Staphylococcus aureus 77 after 18 hrs by twofold agar dilution method; type: functional; conditions: Staphylococcus aureus, 77, 18 h; read-out: MIC
Staphylococcus aureus [4] = test: Antimicrobial activity against Staphylococcus aureus giorgio after 18 hrs by twofold agar dilution method; type: functional
Staphylococcus aureus [5] = test: Antimicrobial activity against Staphylococcus aureus ATCC 6538P after 18 hrs by twofold agar dilution method; type: functional
Moraxella catarrhalis [6] = test: Antimicrobial activity against Moraxella catarrhalis C2431 after 18 hrs by twofold agar dilution method; type: functional; conditions: C2431, 18 h
Klebsiella pneumoniae = test: Antimicrobial activity against Klebsiella pneumoniae 2011E after 18 hrs by twofold agar dilution method; type: functional
[7] = test system: Acinetobacter calcoaceticus; test: Antimicrobial activity against Acinetobacter calcoaceticus ATCC 15473 after 18 hrs by twofold agar dilution method; type: functional; conditions: ATCC 15473, 18 h
Morganella morganii = test: Antimicrobial activity against Morganella morganii 1375E after 18 hrs by twofold agar dilution method; type: functional
Salmonella typhimurium [8] = test: Antimicrobial activity against Salmonella typhimurium ATCC 13311 after 18 hrs by twofold agar dilution method; type: functional, Salmonella enterica subsp. enterica serovar Typhimurium; conditions: Salmonella enterica, ATCC 13311, 18 h
Staphylococcus aureus [9] = test: Antimicrobial activity against Staphylococcus aureus 241 after 18 hrs by twofold agar dilution method; type: functional; conditions: Staphylococcus aureus, 241, 18 h; read-out: MIC
Moraxella catarrhalis [10] = test: Antimicrobial activity against Moraxella catarrhalis 25240 after 18 hrs by twofold agar dilution method; type: functional; conditions: Moraxella catarrhalis, 25240, 18 h
Enterococcus faecalis = test: Antimicrobial activity against Enterococcus faecalis ATCC 29212 after 18 hrs by twofold agar dilution method; type: functional; conditions: ATCC 29212, 18 h
Bacillus cereus = test: Antimicrobial activity against Bacillus cereus ATCC 27348 after 18 hrs by twofold agar dilution method; type: functional; conditions: ATCC 27348, 18 h
Serratia marcescens [11] = test: Antimicrobial activity against Serratia marcescens 1826E after 18 hrs by twofold agar dilution method; type: functional
Enterobacter cloacae [12] = test: Antimicrobial activity against Enterobacter cloacae P99 after 18 hrs by twofold agar dilution method; type: functional; conditions: P99, 18 h
Pseudomonas aeruginosa = test: Antimicrobial activity against Pseudomonas aeruginosa 6065Y after 18 hrs by twofold agar dilution method; type: functional
Serratia marcescens [13] = test: Antimicrobial activity against Serratia marcescens ATCC 27117 after 18 hrs by twofold agar dilution method; type: functional; conditions: ATCC 27117, 18 h
Bacillus subtilis = test: Antimicrobial activity against Bacillus subtilis ATCC 6633 after 18 hrs by twofold agar dilution method; type: functional; conditions: ATCC 6633, 18 h
Escherichia coli [14] = test: Antimicrobial activity against Escherichia coli 3190Y after 18 hrs by twofold agar dilution method; type: functional
Enterobacter cloacae [15] = test: Antimicrobial activity against Enterobacter cloacae ATCC 27508 after 18 hrs by twofold agar dilution method; type: functional; conditions: ATCC 27508, 18 h
[16] = test system: Staphylococcus epidermidis; test: Antimicrobial activity against Staphylococcus epidermidis 887E after 18 hrs by twofold agar dilution method; type: functional; conditions: read-out: MIC
Bacillus licheniformis = test: Antimicrobial activity against Bacillus licheniformis EMR after 18 hrs by twofold agar dilution method; type: functional; conditions: read-out: MIC
Citrobacter freundii = test: Antimicrobial activity against Citrobacter freundii 8090 after 18 hrs by twofold agar dilution method; type: functional; conditions: Citrobacter freundii, 8090, 18 h
Klebsiella aerogenes = test: Antimicrobial activity against Klebsiella aerogenes harboring beta-lactamase SHV-1 1976E mutant after 18 hrs by twofold agar dilution method; type: functional
Proteus vulgaris = test: Antimicrobial activity against Proteus vulgaris 6059 after 18 hrs by twofold agar dilution method; type: functional; conditions: Proteus vulgaris, 6059, 18 h
Escherichia coli [17] = test: Antimicrobial activity against Escherichia coli ATCC 10536 after 18 hrs by twofold agar dilution method; type: functional; conditions: ATCC 10536, 18 h
Salmonella typhimurium [18] = test: Antimicrobial activity against Salmonella Typhimurium ATCC 14028 after 18 hrs by two-fold agar dilution method; type: functional, Salmonella enterica subsp. enterica serovar Typhimurium; conditions: Salmonella enterica, ATCC 14028, 18 h
Escherichia coli [19] = test: Antimicrobial activity against Escherichia coli 851E after 18 hrs by twofold agar dilution method; type: functional
Micrococcus luteus = test: Antimicrobial activity against Micrococcus luteus ATCC 9341 after 18 hrs by twofold agar dilution method; type: functional; conditions: ATCC 9341, 18 h, read-out: MIC

C[C@H](CO)[C@H]1CC[C@H]2[C@@H]3[C@H](N)C[C@H]4C[C@@H](NCCCNCCCCN)CC[C@]4(C)[C@H]3CC[C@]12C.Cl.Cl.Cl
MIC (Staphylococcus aureus [1]; read-out: MIC): 32 µg/mL | MIC (Escherichia coli [2]; read-out: MIC): < 32 µg/mL | MIC (Citrobacter koseri): > 32 µg/mL | MIC (Staphylococcus aureus [3]): 8 µg/mL | MIC (Staphylococcus aureus [4]): 32 µg/mL | MIC (Staphylococcus aureus [5]): 16 µg/mL | MIC (Moraxella catarrhalis [6]; read-out: MIC): < 32 µg/mL | MIC (Klebsiella pneumoniae): > 32 µg/mL | MIC [7]: > 32 µg/mL | MIC (Morganella morganii): > 32 µg/mL | MIC (Salmonella typhimurium [8]): > 32 µg/mL | MIC (Staphylococcus aureus [9]): 16 µg/mL | MIC (Moraxella catarrhalis [10]): > 32 µg/mL | MIC (Enterococcus faecalis; read-out: MIC): < 32 µg/mL | MIC (Bacillus cereus; read-out: MIC): < 32 µg/mL | MIC (Serratia marcescens [11]): > 32 µg/mL | MIC (Enterobacter cloacae [12]): > 32 µg/mL | MIC (Pseudomonas aeruginosa): > 32 µg/mL | MIC (Serratia marcescens [13]): > 32 µg/mL | MIC (Bacillus subtilis): 16 µg/mL | MIC (Escherichia coli [14]): > 32 µg/mL | MIC (Enterobacter cloacae [15]): > 32 µg/mL | MIC [16]: 32 µg/mL | MIC (Bacillus licheniformis): < 32 µg/mL | MIC (Citrobacter freundii): > 32 µg/mL | MIC (Klebsiella aerogenes): > 32 µg/mL | MIC (Proteus vulgaris): > 32 µg/mL | MIC (Escherichia coli [17]): > 32 µg/mL | MIC (Salmonella typhimurium [18]): > 32 µg/mL | MIC (Escherichia coli [19]): > 32 µg/mL | MIC (Micrococcus luteus): 16 µg/mL

C[C@H](CO)[C@H]1CC[C@H]2[C@@H]3[C@H](F)C[C@H]4C[C@@H](NCCCNCCCCN)CC[C@]4(C)[C@H]3CC[C@]12C.Cl.Cl.Cl
MIC (Staphylococcus aureus [1]): > 32 µg/mL | MIC (Escherichia coli [2]): > 32 µg/mL | MIC (Citrobacter koseri): > 32 µg/mL | MIC (Staphylococcus aureus [3]): 8 µg/mL | MIC (Staphylococcus aureus [4]): 8 µg/mL | MIC (Staphylococcus aureus [5]): 8 µg/mL | MIC (Moraxella catarrhalis [6]): > 32 µg/mL | MIC (Klebsiella pneumoniae): > 32 µg/mL | MIC [7]: > 32 µg/mL | MIC (Morganella morganii): > 32 µg/mL | MIC (Salmonella typhimurium [8]): > 32 µg/mL | MIC (Staphylococcus aureus [9]): 8 µg/mL | MIC (Moraxella catarrhalis [10]; read-out: MIC): 32 µg/mL | MIC (Enterococcus faecalis; read-out: MIC): < 32 µg/mL | MIC (Bacillus cereus): > 32 µg/mL | MIC (Serratia marcescens [11]): > 32 µg/mL | MIC (Enterobacter cloacae [12]): > 32 µg/mL | MIC (Pseudomonas aeruginosa): > 32 µg/mL | MIC (Serratia marcescens [13]): > 32 µg/mL | MIC (Bacillus subtilis): 16 µg/mL | MIC (Escherichia coli [14]; read-out: MIC): < 32 µg/mL | MIC (Enterobacter cloacae [15]): > 32 µg/mL | MIC [16]: 16 µg/mL | MIC (Bacillus licheniformis): < 32 µg/mL | MIC (Citrobacter freundii): > 32 µg/mL | MIC (Klebsiella aerogenes): > 32 µg/mL | MIC (Proteus vulgaris): > 32 µg/mL | MIC (Escherichia coli [17]): > 32 µg/mL | MIC (Salmonella typhimurium [18]): > 32 µg/mL | MIC (Escherichia coli [19]): > 32 µg/mL | MIC (Micrococcus luteus): 16 µg/mL

C[C@H](CO)[C@H]1CC[C@H]2[C@@H]3[C@H](O)C[C@H]4C[C@@H](NCCCNCCCCN)CC[C@]4(C)[C@H]3CC[C@]12C.Cl.Cl.Cl
MIC (Staphylococcus aureus [1]; read-out: MIC): < 32 µg/mL | MIC (Escherichia coli [2]; read-out: MIC): < 32 µg/mL | MIC (Citrobacter koseri): > 32 µg/mL | MIC (Staphylococcus aureus [3]): 16 µg/mL | MIC (Staphylococcus aureus [4]): 32 µg/mL | MIC (Staphylococcus aureus [5]): 16 µg/mL | MIC (Moraxella catarrhalis [6]): > 32 µg/mL | MIC (Klebsiella pneumoniae): > 32 µg/mL | MIC [7]: > 32 µg/mL | MIC (Morganella morganii): > 32 µg/mL | MIC (Salmonella typhimurium [8]): > 32 µg/mL | MIC (Staphylococcus aureus [9]): 16 µg/mL | MIC (Moraxella catarrhalis [10]; read-out: MIC): < 32 µg/mL | MIC (Enterococcus faecalis): > 32 µg/mL | MIC (Bacillus cereus): > 32 µg/mL | MIC (Serratia marcescens [11]): > 32 µg/mL | MIC (Enterobacter cloacae [12]): > 32 µg/mL | MIC (Pseudomonas aeruginosa): > 32 µg/mL | MIC (Serratia marcescens [13]): > 32 µg/mL | MIC (Bacillus subtilis): 16 µg/mL | MIC (Escherichia coli [14]; read-out: MIC): < 32 µg/mL | MIC (Enterobacter cloacae [15]): > 32 µg/mL | MIC [16]: 32 µg/mL | MIC (Bacillus licheniformis): < 32 µg/mL | MIC (Citrobacter freundii): > 32 µg/mL | MIC (Klebsiella aerogenes): > 32 µg/mL | MIC (Proteus vulgaris): > 32 µg/mL | MIC (Escherichia coli [17]): > 32 µg/mL | MIC (Salmonella typhimurium [18]): > 32 µg/mL | MIC (Escherichia coli [19]): > 32 µg/mL | MIC (Micrococcus luteus): 16 µg/mL
